In PMC4768256, “Using mutagenesis to explore conserved residues in the RNA-binding groove of influenza A virus nucleoprotein for antiviral drug development” (Scientific Reports, 2016):

Target: T1, NP (nucleoprotein of influenza A virus H1N1, full-length wild type) (Influenza A virus (A/Nanchang/11/1996(H1N1)), UniProt Q07FI1)
T1 construct: full-length (498 aa), N-terminal 6xHis-tag as printed, pET21b NdeI/XhoI, E. coli, Ni-NTA, RNase-treated lysate
Type: binding

T1 sequence (Q07FI1 whole entry): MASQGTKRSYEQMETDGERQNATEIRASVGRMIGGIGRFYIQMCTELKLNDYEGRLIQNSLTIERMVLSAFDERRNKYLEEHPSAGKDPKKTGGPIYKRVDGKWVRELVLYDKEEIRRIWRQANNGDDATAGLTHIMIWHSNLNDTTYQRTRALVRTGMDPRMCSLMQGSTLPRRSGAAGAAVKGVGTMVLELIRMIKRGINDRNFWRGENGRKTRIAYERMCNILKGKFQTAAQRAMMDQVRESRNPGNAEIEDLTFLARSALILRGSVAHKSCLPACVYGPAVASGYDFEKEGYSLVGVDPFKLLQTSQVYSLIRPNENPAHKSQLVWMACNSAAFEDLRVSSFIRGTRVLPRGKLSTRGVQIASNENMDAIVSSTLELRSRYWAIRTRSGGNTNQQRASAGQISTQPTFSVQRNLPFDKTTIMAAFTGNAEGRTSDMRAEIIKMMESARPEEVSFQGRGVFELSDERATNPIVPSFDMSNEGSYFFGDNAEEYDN

## COc1cc(/C=C/C(=O)CC(=O)/C=C/c2ccc(O)c(OC)c2)ccc1O [H7, (E,E)-1,7-bis(4-hydroxy-3-methoxyphenyl)-1,6-heptadiene-3,5-dione]
  Kd: 1220 nM
